Measurements as given in patent publication US20190031773A1, “INHIBITORS AND ANTAGONISTS OF HUMAN PYCR1” (AGENCY FOR SCIENCE, TECHNOLOGY AND RESEARCH, priority 2017, published 2019).

How the values were obtained:
[1] = biological target: T1, PYCR1 full length recombinant enzyme (aa 1-319) (Homo sapiens, UniProt P32322); experiment: PYCR1 Inhibition Assay (NAD(P)H-Glo luminescence); format: biochemical; conditions: 5 mM L-proline + 0.5 mM NAD+, 4.2 nM enzyme, 45 min at room temperature
T1 construct: PYCR1 full length recombinant enzyme (aa 1-319) with a 6His-tag at the N-terminus; 6His (N); made in house; host or cells: E. coli
T1 sequence (P32322 1-319): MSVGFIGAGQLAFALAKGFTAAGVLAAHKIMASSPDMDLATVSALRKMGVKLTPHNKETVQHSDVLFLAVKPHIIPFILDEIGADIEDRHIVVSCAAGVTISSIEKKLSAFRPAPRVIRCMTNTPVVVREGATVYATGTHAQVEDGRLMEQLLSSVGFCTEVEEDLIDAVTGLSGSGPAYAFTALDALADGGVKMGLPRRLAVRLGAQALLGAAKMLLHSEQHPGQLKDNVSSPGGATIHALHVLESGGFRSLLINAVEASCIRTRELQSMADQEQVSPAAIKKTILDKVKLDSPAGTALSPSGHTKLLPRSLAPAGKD
Text: An example for such assay may look as follows:
The assay is based on the ability of PYCR1 to catalyze the oxidation of L-proline to L-1 pyrroline-5-carboxylate which occurs concomitant with the reduction of the cosubstrate NAD^+ to its reduced form NADH+H^+. The amount of NADH+H^+ was quantified using the NAD(P)H-Glo™ kit from Promega (catalogue number G9062). Components of the kit generate a luciferase-based luminescence signal the intensity of which is linearly proportional to the amount of NADH+H^+ generated by the PYCR1 reaction and consequently the PYCR1 activity. The luminescence intensity was taken as the measure for the amount of NADH+H^+ generated by PYCR1. […] 40 nl Test compound (dissolved and serially diluted in DMSO at final concentrations during the enzymatic reaction ranging from 6.9E-09 M to 4.5E-05 M) is added to the well of a white 1536-well microtiter plate using an acoustic dispenser (Echo Liquid Handler from Labcyte Inc.) • 2. […] Preincubation of enzyme and test compound for approximately 15 min at room temperature • 4. Add 2.0 μl Substrate mix in assay buffer (5 mM L-proline+0.5 mM NAD^+ final concentration during the enzymatic reaction) • 5. 45 min PYCR1 reaction at room temperature (linear range of the enzymatic reaction) • 6. Add 1.0 μl Stopping agent in assay buffer (2 mM ZnCl2 final concentration) • 7. Incubate for 15 min at room temperature • 8. Add 2.0 μl NAD(P)H-Glo™ reagent (Promega) • 9. Incubate for 30-150 min at room temperature for generation of the persistent luminescence signal • 10. Measure luminescence intensity in a ViewLux Imager (PerkinElmer)

rat MH3924A cells [2] = experiment: Subcutaneous MH3924A xenograft model; format: in vivo; conditions: scid mice
Text: Female scid mice (InVivos, Singapore) were subcutaneously inoculated with 1×10^6rat MH3924A cells that were stably transfected with either shRNA Pycr1.2 or scrambled control shRNA. Mice were sacrificed and tumors excised 3 weeks later.

rat MH3924A cells [3] = experiment: Orthotopic MH3924A xenograft models, doxycycline-inducible shRNA; format: in vivo, scid mice; conditions: preventive setting, knockdown induced by doxycycline one day after orthotopic implantation
Text: The HCC model was created by the direct intrahepatic injection of rat MH3924A cells harboring inducible shRNA Pycr1.2 or scrambled shRNA constructs into scid mice (InVivos, Singapore). The mice were anesthetized and a midline incision was made to expose the liver. The cells were then slowly injected under the hepatic capsule into the upper left lobe of the liver using a 27-G needle. A pale, whitish color could be observed at the point of injection under the hepatic capsule. Gentle compression was applied with a cotton applicator to stop bleeding and reflux of the cells. The abdomen was closed with a 4-0 silk suture.
In the preventive setting (FIG. 7), shRNA expression was induced the day after cell injection by adding 1 μg/ml doxycycline to the drinking water. Two weeks later, animals were sacrificed and tumors excised for analysis (n=5).
In the therapeutic setting, mice were subjected to liver MRI (magnetic resonance imaging) 7 days (1st experiment, FIG. 8) or 10 days (2nd experiment, FIG. 9) after cell injection and shRNA expression was induced one or four days later by adding 1 μg/ml doxycycline to the drinking water. On day 19 (1st experiment) or 21 (2nd experiment), animals were subjected to liver MRI and sacrificed. Tumors were lysed and analyzed for PYCR1 by Western blot.

rat MH3924A cells [4] = system: rat MH3924A cells
Experimental: Morris hepatoma cells (MH3924A) were cultured in Dulbecco's modified eagle medium (DMEM) media supplemented with 10% fetal bovine serum (FBS), 100 IU/ml penicillin, 100 μg/ml streptomycin. To assess cell proliferation, cells were seeded in T25 flasks and incubated in DMEM complete medium for 24 hours to allow attachment. Subsequently, seeding cells were infected with shRNA lentivirus in the presence of 8μg/ ml of polybrene for about 7 hours, cells were grown for varying lengths of time, at the end of which they were detached by trypsinization and counted with Countess (Life Technologies, Carlsbad, USA).

O=C(CCCc1nc(-c2ccc(Cl)cc2)no1)Nc1ccccc1C(=O)O [2-({4-[3-(4-chlorophenyl)-1,2,4-oxadiazol-5-yl]butanoyl}amino)benzoic acid]
IC50 [1]: 8 µM

O=C(Cc1ccc(C(=O)O)cc1)NC(c1ccccc1)c1ccccc1N1CCCCC1 (centres unmarked) [4-(2-oxo-2-{[phenyl(2-piperidin-1-ylphenyl)methyl]amino}ethyl)benzoic acid]
IC50 [1]: 7.3 µM

COc1ccc(C(=O)c2oc3ccccc3c2CSCCC(=O)OC(C)(C)C)cc1C(=O)O [5-[(3-{[(3-tert-butoxy-3-oxopropyl)thio]methyl}-1-benzofuran-2-yl)carbonyl]-2-methoxybenzoic acid]
IC50 [1]: 8.5 µM

shRNA Pycr1.2: Rat PYCR1.2 shRNA: GAACCTGACACCCCACAACAA, short hairpin oligonucleotide targeting rat Pycr1 in lentiviral vector pLKO or pLKO-Tet
tumor weight (rat MH3924A cells [2]; MH3924A cells stably expressing shRNA, 3 weeks, n=5): significantly reduced
tumor growth in vivo (rat MH3924A cells [2]; tumors excised 3 weeks later): significantly inhibited tumor growth
tumor growth (rat MH3924A cells [3]): significantly reduced tumor growth
cell growth (rat MH3924A cells [4]; doxycycline-inducible PYCR1 knockdown MH3924A cell line, with vs without doxycycline): reduced cell growth
cell proliferation (rat MH3924A cells [4]; rat MH3924A cells, shRNA knockdown vs scrambled shRNA): reduced proliferation
